How the values were obtained:
Assay in all cases: relative viability (nuclei count vs DMSO), 5 days (fraction); higher = more cells survive
Sunitinib + Luminespib = compound: CCN(CC)CCNC(=O)c1c(C)[nH]c(/C=C2\C(=O)Nc3ccc(F)cc32)c1C [Sunitinib] + CCNC(=O)c1noc(-c2cc(C(C)C)c(O)cc2O)c1-c1ccc(CN2CCOCC2)cc1 [Luminespib] (partner 0.01 µM)
Summary of the method: (§1)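 Lung cancer cell lines, seeded in 1536-well plates, were treated the following day by pin tool with a single drug or with five library-drug doses (not always all listed) in √10 steps on top of a fixed anchor-drug dose. Cells were fixed and nuclei stained in one step after 5 days, and nuclei were counted. Relative viability is the nuclei count for treated wells divided by that for vehicle wells, reported as medians of duplicate plates.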

Sunitinib + OSI-027 = compound: CCN(CC)CCNC(=O)c1c(C)[nH]c(/C=C2\C(=O)Nc3ccc(F)cc32)c1C [Sunitinib] + COc1cccc2cc(-c3nc([C@H]4CC[C@H](C(=O)O)CC4)n4ncnc(N)c34)[nH]c12 [OSI-027] (partner 0.5 µM)
Summary of the method: as §1

Sunitinib + Palbociclib = compound: CCN(CC)CCNC(=O)c1c(C)[nH]c(/C=C2\C(=O)Nc3ccc(F)cc32)c1C [Sunitinib] + CC(=O)c1c(C)c2cnc(Nc3ccc(N4CCNCC4)cn3)nc2n(C2CCCC2)c1=O [Palbociclib] (partner 0.5 µM)
Summary of the method: as §1

Sunitinib + Pictilisib = compound: CCN(CC)CCNC(=O)c1c(C)[nH]c(/C=C2\C(=O)Nc3ccc(F)cc32)c1C [Sunitinib] + CS(=O)(=O)N1CCN(Cc2cc3nc(-c4cccc5[nH]ncc45)nc(N4CCOCC4)c3s2)CC1 [Pictilisib] (partner 1 µM)
Summary of the method: as §1

Row | Cell Line | relative viability (Sunitinib + Luminespib; first compound 0.02 µM) | relative viability (Sunitinib + Luminespib; first compound 0.06325 µM) | relative viability (Sunitinib + Luminespib; first compound 0.2 µM) | relative viability (Sunitinib + Luminespib; first compound 0.6325 µM) | relative viability (Sunitinib + Luminespib; first compound 2 µM) | relative viability (Sunitinib + OSI-027; first compound 0.02 µM) | relative viability (Sunitinib + OSI-027; first compound 0.06325 µM) | relative viability (Sunitinib + OSI-027; first compound 0.2 µM) | relative viability (Sunitinib + OSI-027; first compound 0.6325 µM) | relative viability (Sunitinib + OSI-027; first compound 2 µM) | relative viability (Sunitinib + Palbociclib; first compound 0.02 µM) | relative viability (Sunitinib + Palbociclib; first compound 0.06325 µM) | relative viability (Sunitinib + Palbociclib; first compound 0.2 µM) | relative viability (Sunitinib + Palbociclib; first compound 0.6325 µM) | relative viability (Sunitinib + Palbociclib; first compound 2 µM) | relative viability (Sunitinib + Pictilisib; first compound 0.02 µM) | relative viability (Sunitinib + Pictilisib; first compound 0.06325 µM) | relative viability (Sunitinib + Pictilisib; first compound 0.2 µM) | relative viability (Sunitinib + Pictilisib; first compound 0.6325 µM) | relative viability (Sunitinib + Pictilisib; first compound 2 µM)
1 | NCI-H1650 | 0.219 | 0.201 | 0.206 | 0.198 | 0.217 | 0.577 | 0.65 | 0.527 | 0.768 | 0.513 | 0.359 | 0.472 | 0.384 | 0.392 | 0.33 | 0.535 | 0.559 | 0.545 | 0.681 | 0.536
2 | NCI-H1395 | 0.72 | 0.375 | 0.723 | 0.706 | 0.602 | 0.648 | 0.701 | 0.632 | 0.739 | 0.697 | 0.638 | 0.625 | 0.649 | 0.745 | 0.619 | 0.609 | 0.646 | 0.662 | 0.614 | 0.594
3 | NCI-H1355 | 0.723 | 0.735 | 0.718 | 0.712 | 0.719 | 0.431 | 0.455 | 0.441 | 0.437 | 0.365 | 0.41 | 0.393 | 0.44 | 0.382 | 0.393 | 0.431 | 0.448 | 0.477 | 0.399 | 0.447
4 | HOP-62 | 0.832 | 0.928 | 1 | 1.02 | 0.919 | 0.763 | 1.01 | – | 0.977 | 0.995 | 0.381 | 0.485 | 0.496 | 0.427 | 0.533 | 0.66 | 1.08 | 0.745 | 0.696 | 0.724
5 | NCI-H2405 | 0.672 | 0.616 | 0.854 | 0.947 | 0.722 | 0.647 | 0.643 | 0.631 | 0.65 | 0.673 | 0.495 | 0.581 | 0.546 | 0.494 | 0.587 | 0.382 | 0.49 | 0.502 | 0.524 | 0.474
6 | NCI-H358 | 0.375 | 0.304 | 0.564 | 0.307 | 0.242 | 0.685 | 0.814 | 0.878 | 0.691 | 0.38 | 0.138 | 0.158 | 0.138 | 0.132 | 0.125 | 0.369 | 0.38 | 0.34 | 0.359 | 0.261
7 | EPLC-272H | 0.364 | 0.38 | 0.561 | 0.582 | 0.262 | 0.336 | 0.318 | 0.302 | 0.29 | 0.291 | 0.324 | 0.303 | 0.316 | 0.256 | 0.298 | 0.313 | 0.336 | 0.297 | 0.338 | 0.334
8 | NCI-H3122 | 0.0868 | 0.127 | 0.0866 | 0.0951 | 0.0797 | 0.874 | – | 1.06 | 0.917 | 0.69 | 0.159 | 0.189 | 0.213 | 0.176 | 0.207 | 0.576 | 0.64 | 0.583 | 0.577 | 0.548
9 | NCI-H1651 | 0.758 | 0.766 | 1.06 | 0.942 | 1.14 | 0.57 | – | 0.73 | 0.534 | 0.714 | 0.488 | 0.539 | 0.516 | 0.498 | 0.55 | 0.462 | 0.729 | 0.616 | 0.614 | 0.593
10 | SK-MES-1 | 0.729 | 0.708 | 0.795 | – | 0.7 | 0.583 | 0.63 | 0.681 | 0.719 | 0.56 | 0.309 | 0.322 | 0.363 | 0.397 | 0.388 | 0.352 | 0.382 | 0.344 | 0.316 | 0.359
11 | LCLC-103H | 0.883 | 1.04 | 0.966 | 0.977 | 1.06 | 0.373 | 0.477 | 0.467 | 0.397 | 0.456 | 0.499 | 0.488 | 0.484 | 0.495 | 0.52 | 0.558 | 0.649 | 0.643 | 0.614 | 0.536
12 | NCI-H460 | 0.0352 | 0.0388 | 0.0351 | 0.0528 | 0.0318 | 0.593 | 0.717 | 0.78 | 0.768 | 0.467 | 0.157 | 0.189 | 0.124 | 0.226 | 0.171 | 0.323 | 0.19 | 0.441 | 0.366 | 0.304
13 | COR-L 105 | 0.665 | 0.706 | 0.744 | 0.914 | 0.686 | 0.626 | 0.734 | 0.779 | 0.987 | 0.767 | 0.431 | 0.399 | 0.436 | 0.405 | 0.458 | 0.371 | 0.415 | 0.569 | 0.364 | 0.409
14 | NCI-H1975 | 0.278 | 0.185 | 0.185 | 0.173 | 0.172 | 0.62 | 0.826 | 0.805 | 0.633 | 0.498 | 0.531 | 0.715 | 0.76 | 0.727 | 0.473 | 0.285 | 0.345 | 0.319 | 0.33 | 0.237
15 | NCI-H2228 | 0.138 | 0.145 | 0.148 | 0.177 | 0.114 | 0.523 | 0.658 | 0.625 | 0.529 | 0.411 | 0.829 | 0.942 | 1.15 | 1.16 | 0.693 | 0.536 | 0.445 | 0.299 | 0.454 | 0.216
16 | LC-2-ad | 1.09 | 1.06 | 1.18 | 1.04 | 0.913 | – | 0.844 | 0.944 | 0.818 | 0.614 | 0.491 | 0.481 | 0.593 | 0.48 | 0.42 | 0.51 | 0.461 | 0.444 | 0.285 | 0.28
17 | HARA | 0.67 | 0.819 | 0.536 | 0.882 | 0.651 | 0.447 | 0.566 | 0.655 | 0.489 | 0.399 | 0.268 | 0.257 | 0.201 | 0.246 | 0.275 | 0.397 | 0.374 | 0.606 | 0.31 | 0.323
18 | PC-3 [JPC-3] | 0.681 | 0.672 | 0.755 | 0.762 | 0.692 | 0.807 | 0.773 | 0.743 | 0.82 | 0.754 | 0.539 | 0.561 | 0.566 | 0.56 | 0.602 | 0.819 | 0.768 | 0.841 | 0.685 | 0.694
19 | LCLC-97TM1 | 0.597 | 0.743 | – | 0.794 | 0.772 | 0.553 | 0.59 | 0.598 | 0.48 | 0.473 | 0.209 | 0.268 | 0.279 | 0.229 | 0.231 | 0.199 | 0.261 | – | 0.213 | 0.233
20 | LU99A | 0.281 | 0.254 | 0.281 | 0.221 | 0.299 | 0.289 | 0.297 | 0.287 | 0.329 | 0.317 | 0.338 | 0.473 | 0.417 | 0.433 | 0.442 | 0.308 | 0.352 | 0.282 | 0.317 | 0.313
21 | NCI-H1666 | 0.983 | – | 1.07 | 1.07 | 1.12 | 0.835 | 0.877 | 0.924 | 0.924 | 0.822 | 0.655 | 0.665 | 0.677 | 0.657 | 0.621 | 0.459 | 0.517 | 0.603 | 0.55 | 0.429
22 | NCI-H520 | 0.22 | 0.231 | 0.214 | 0.22 | 0.228 | 0.249 | 0.286 | 0.321 | 0.292 | 0.3 | 0.237 | 0.248 | 0.224 | 0.27 | 0.267 | 0.244 | 0.32 | 0.348 | 0.278 | 0.273
23 | A-427 | 0.923 | 1.08 | 1.13 | – | 0.903 | 0.445 | 0.49 | 0.448 | 0.537 | 0.392 | 0.508 | 0.544 | 0.568 | 0.545 | 0.546 | 0.702 | 0.8 | 0.926 | 0.748 | 0.73
24 | ChaGo-K-1 | 0.587 | 0.662 | 0.784 | 0.709 | 0.724 | 0.494 | 0.685 | 0.577 | 0.663 | 0.579 | 0.919 | 0.918 | 0.945 | 0.933 | 0.801 | 0.766 | 0.786 | 0.774 | 0.624 | 0.756
25 | NCI-H23 | 0.214 | 0.229 | 0.204 | 0.214 | 0.21 | 0.57 | 0.749 | 0.675 | 0.803 | 0.469 | 0.469 | 0.599 | 0.488 | 0.532 | 0.49 | 0.498 | 0.594 | 0.483 | 0.468 | 0.504

Reference: the supplement of paper PMC10307832
